Earlier results in patent US10561603B2, “Core-shell structure and topical agent” (SEKISUI CHEMICAL CO., LTD., priority 2015, dated 2020).
Where a name gives a salt, the structure may show the parent alone.

Conditions: given with manufacturer and molecular weight of the drug raw material

Row | SMILES | water-octanol partition coefficient
1 | CCCc1nc(C)c2c(=O)[nH]c(-c3cc(S(=O)(=O)N4CCN(CC)CC4)ccc3OCC)nn12 [vardenafil hydrochloride trihydrate] | 3.2
2 | C[C@@H](O)[C@@H]1NC(=O)[C@H](CCCCN)NC(=O)[C@@H](Cc2c[nH]c3ccccc23)NC(=O)[C@H](Cc2ccccc2)NC(=O)[C@@H](NC(=O)[C@H](N)Cc2ccccc2)CSSC[C@@H](C(=O)N[C@H](CO)[C@@H](C)O)NC1=O [octreotide acetate] | 0.1
